Laboratory results from patent publication US6277847A, “Herbicidal isoindolinonyl-and 3,4-dihydroisoquinolonyl-substituted heterocycles” (FMC Corporation, priority 2000, dated 2001).

Assays:
Format in all cases: in vivo
[1] = system: field corn (Zea mays var. Pioneer 3732); assay: pre-emergence herbicidal activity, corn; details: 1 kg/Ha, about fourteen days, read-out: pre-emergence herbicidal activity (% control) CRN
How it was run: (§1)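 Seeds sown in flats of soil mix were sprayed pre-emergence with test compound in water/acetone at 1 kg/Ha. Flats were held about fourteen days beside untreated controls, then phytotoxicity was scored as percent control (0 = no effect, 100 = complete control).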

[2] = system: morningglory (Ipomea lacunosa or Ipomea hederacea); assay: pre-emergence herbicidal activity, morningglory; details: Ipomoea, 1 kg/Ha, about fourteen days, read-out: pre-emergence herbicidal activity (% control) IPOSS
How it was run: as §1

[3] = system: blackgrass (Aloepecurus myosuroides); assay: post-emergence herbicidal activity, blackgrass; details: Alopecurus myosuroides, 1 Kg/Ha, about fourteen days, read-out: post-emergence herbicidal activity (% control) ALOMY
Method: (§2) This example sets forth the methods of herbicidal testing conducted on the specific compounds set forth below. Specifically, the compounds referenced below were tested for pre- and post-emergence herbicidal activity using a variety of crops and weeds. The test plants include, but are not limited to, soybean (Glycine max -- var. Winchester), field corn (Zea mays var. Pioneer 3732), wheat (Triticum aestivum var. Lew), morningglory (Ipomea lacunosa or Ipomea hederacea), velvetleaf (Abutilon theophrasti), green foxtail (Setaria viridis), Johnsongrass (Sorghum halepense), blackgrass (Aloepecurus myosuroides), common chickweed (Stellaria media), and common cocklebur (Xanthium strumarium L.).
(§3) In the post-emergence test, seeds of the plant species named above were planted in flats containing the appropriate soil mixture where they were maintained to allow the seeds to germinate. When the plants in these flats reached the proper stage of growth, flats for the pre-emergence tests were planted in a like manner. The flats containing the post-emergence and pre-emergence test plant species were then sprayed with an appropriately concentrated water/acetone solution of test compound. Once treated the flats were maintained, along with untreated controls, for about fourteen days. All treated plants were then examined for phytotoxicity, which was expressed as percent control where 0 is no effect and 100 is complete control. Effective rates of application for the compounds of the present invention range from 0.001 to 3 kg/ha, more likely from […] to 1 Kg/ha.
(§4) Herbicidal activity data at selected application rates are in Tables 4 and 5. The test compounds are identified by numbers correspond to those in Table 1.
(§5) SOY is soybean, WHT is wheat, CRN is corn, ABUTH is velvetleaf, IPOSS is
(§6) morningglory, STEME is chickweed, XANPE is cocklebur, ALOMY is blackgrass,
(§7) Rate of application of test compound is 1 Kg/Ha. The definitions as shown under Table 4 apply to Table 5.

[4] = system: velvetleaf (Abutilon theophrasti); assay: post-emergence herbicidal activity, velvetleaf; details: 1 Kg/Ha, about fourteen days, read-out: post-emergence herbicidal activity (% control) ABUTH
How it was run: (§8)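 Percent control (0–100) was rated about fourteen days after spraying of emerged, germinated plants in flats with compound dissolved in water/acetone at 1 Kg/Ha.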

[5] = system: field corn (Zea mays var. Pioneer 3732); assay: post-emergence herbicidal activity, corn; details: 1 Kg/Ha, about fourteen days, read-out: post-emergence herbicidal activity (% control) CRN
How it was run: as §8

[6] = system: common chickweed (Stellaria media); assay: pre-emergence herbicidal activity, chickweed; details: 1 kg/Ha, about fourteen days, read-out: pre-emergence herbicidal activity (% control) STEME
How it was run: as §1

[7] = system: soybean (Glycine max -- var. Winchester); assay: post-emergence herbicidal activity, soybean; details: 1 Kg/Ha, about fourteen days, read-out: post-emergence herbicidal activity (% control) SOY
How it was run: as §8

[8] = system: wheat (Triticum aestivum var. Lew); assay: pre-emergence herbicidal activity, wheat; details: 1 kg/Ha, about fourteen days, read-out: pre-emergence herbicidal activity (% control) WHT
How it was run: as §1

[9] = system: wheat (Triticum aestivum var. Lew); assay: post-emergence herbicidal activity, wheat; details: 1 Kg/Ha, about fourteen days, read-out: post-emergence herbicidal activity (% control) WHT
How it was run: as §8

[10] = system: soybean (Glycine max -- var. Winchester); assay: pre-emergence herbicidal activity, soybean; details: 1 kg/Ha, about fourteen days, read-out: pre-emergence herbicidal activity (% control) SOY
How it was run: as §1

[11] = system: morningglory (Ipomea lacunosa or Ipomea hederacea); assay: post-emergence herbicidal activity, morningglory; details: Ipomoea, 1 Kg/Ha, about fourteen days, read-out: post-emergence herbicidal activity (% control) IPOSS
How it was run: as §8

[12] = system: common cocklebur (Xanthium strumarium L.); assay: post-emergence herbicidal activity, cocklebur; details: 1 Kg/Ha, about fourteen days, read-out: post-emergence herbicidal activity (% control) XANPE
How it was run: as §8

[13] = system: green foxtail (Setaria viridis); assay: pre-emergence herbicidal activity, green foxtail; details: 1 kg/Ha, about fourteen days, read-out: pre-emergence herbicidal activity (% control) SETVI
How it was run: as §1

[14] = system: common cocklebur (Xanthium strumarium L.); assay: pre-emergence herbicidal activity, cocklebur; details: 1 kg/Ha, about fourteen days, read-out: pre-emergence herbicidal activity (% control) XANPE
How it was run: as §1

[15] = system: green foxtail (Setaria viridis); assay: post-emergence herbicidal activity, green foxtail; details: 1 Kg/Ha, about fourteen days, read-out: post-emergence herbicidal activity (% control) SETVI
How it was run: as §8

[16] = system: Johnsongrass (Sorghum halepense); assay: post-emergence herbicidal activity, johnsongrass; details: 1 Kg/Ha, about fourteen days, read-out: post-emergence herbicidal activity (% control) SORHA
How it was run: as §8

[17] = system: common chickweed (Stellaria media); assay: post-emergence herbicidal activity, chickweed; details: 1 Kg/Ha, about fourteen days, read-out: post-emergence herbicidal activity (% control) STEME
Method: as §2, §3, §4, §5, §6, §7

[18] = system: velvetleaf (Abutilon theophrasti); assay: pre-emergence herbicidal activity, velvetleaf; details: 1 kg/Ha, about fourteen days, read-out: pre-emergence herbicidal activity (% control) ABUTH
How it was run: as §1

[19] = system: blackgrass (Aloepecurus myosuroides); assay: pre-emergence herbicidal activity, blackgrass; details: Alopecurus myosuroides, 1 kg/Ha, about fourteen days, read-out: pre-emergence herbicidal activity (% control) ALOMY
How it was run: as §1

Row | Compound | activity at 1000 g/ha [1] [%] | activity at 1000 g/ha [2] [%] | activity at 1000 g/ha [3] [%] | activity at 1000 g/ha [4] [%] | activity at 1000 g/ha [5] [%] | activity at 1000 g/ha [6] [%] | activity at 1000 g/ha [7] [%] | activity at 1000 g/ha [8] [%] | activity at 1000 g/ha [9] [%] | activity at 1000 g/ha [10] [%] | activity at 1000 g/ha [11] [%] | activity at 1000 g/ha [12] [%] | activity at 1000 g/ha [13] [%] | activity at 1000 g/ha [14] [%] | activity at 1000 g/ha [15] [%] | activity at 1000 g/ha [16] [%] | activity at 1000 g/ha [17] [%] | activity at 1000 g/ha [18] [%] | activity at 1000 g/ha [19] [%]
1 | COCCN1Cc2c(-n3c(=O)cc(C(F)(F)F)n(C)c3=O)ccc(Cl)c2C1=O [Compound 23] | 100 | 100 | 100 | 100 | 80 | 100 | 100 | 100 | 100 | 100 | 100 | 100 | 100 | 100 | 100 | 100 | 100 | 100 | 
2 | C#CCn1c(C(F)(F)F)cc(=O)n(-c2ccc(Cl)c3c2CN(C(C)C)C3=O)c1=O [Compound 75] | 95 | 100 | 100 | 100 | 50 | 100 | 60 | 100 | 70 | 100 | 50 | 85 | 100 | 95 | 45 |  | 100 | 100 | 95
3 | Cn1c(C(F)(F)F)cc(=O)n(-c2ccc(Cl)c3c2CN(C2CCCC2)C3=O)c1=O [Compound 76] | 95 | 100 | 100 | 100 | 100 | 100 | 95 | 80 | 100 | 100 | 100 | 100 | 100 | 100 | 100 |  | 100 | 100 | 90
4 | Cn1c(C(F)(F)F)cc(=O)n(-c2ccc(Cl)c3c2CN(C2CCCCC2)C3=O)c1=O [Compound 77] | 90 | 100 | 100 | 100 | 100 | 100 | 95 | 80 | 80 | 100 | 100 | 100 | 100 | 100 | 100 |  | 100 | 100 | 95
5 | Cn1c(C(F)(F)F)cc(=O)n(-c2ccc(Cl)c3c2CN(CCF)C3=O)c1=O [Compound 78] | 100 | 100 | 100 | 100 | 100 | 100 | 100 | 100 | 100 | 100 | 100 | 100 | 100 | 100 | 100 |  | 100 | 100 | 100
6 | C=CCn1c(C(F)(F)F)cc(=O)n(-c2ccc(Cl)c3c2CN(C(C)C)C3=O)c1=O [Compound 80] | 70 | 80 | 65 | 95 | 75 | 100 | 85 | 80 | 50 | 70 | 30 | 40 | 95 | 40 | 80 |  | 100 | 100 | 80
7 | CC(C)N1Cc2c(-n3c(=O)cc(C(F)(F)F)n(C)c3=O)ccc(Br)c2C1=O [Compound 81] | 100 | 100 | 100 | 100 | 100 | 100 | 100 | 100 | 100 | 100 | 100 | 100 | 100 | 100 | 100 |  | 100 | 100 | 100
8 | CC(C)N1Cc2c(c(Cl)cc(Cl)c2N2C(=O)C3=C(CCCC3)C2=O)C1=O [Compound 82, 1-[5,7-dichloro-2-(1-methylethyl)isoindolin-1-on-4-yl]-3,4,5,6-tetrahydrophthalimide] | 80 | 100 | 100 | 100 | 65 | 100 | 60 | 60 | 40 | 70 | 95 | 100 | 100 | 95 | 100 |  | 85 | 100 | 70
9 | CC(C)N1Cc2c(-n3nc4n(c3=O)CCCC4)ccc(Cl)c2C1=O [Compound 83, 2-[7-chloro-2-(1-methylethyl)isoindolin-1-on-4-yl]-5,6,7,8-tetrahydro-1,2,4-triazolo[4,3-A]pyridin-3(2H)-one] | 0 | 60 | 50 | 100 | 60 | 100 | 80 | 10 | 30 | 5 | 90 | 60 | 60 | 30 | 60 |  | 80 | 100 | 50
